Measured values from patent publication US20260083698A1, “Synergistic Stimulation of Mucociliary Clearance to Treat Mucus Obstruction in Cystic Fibrosis and Other Muco-Obstructive Disorders” (The Board of Trustees of the Leland Stanford Junior …, priority 2022, published 2026).

Experiments:
[1] = system: WT ferret tracheal glands; experiment: Optical measurement of glandular mucus secretion rate, WT ferret
Description: (§1) Synergistic glandular mucus secretion in WT pigs, WT ferrets, and CF ferrets. Synergistic increases in MCCV rely partly on increased mucus secretion from submucosal glands. This hypothesis arises from evidence that combinations of [Ca^2+]i-elevating and [cAMP]i-elevating agonists produce synergistically elevated rates of mucus from submucosal glands of humans (22), pigs (24), and ferrets (21). However, in those experiments different specific concentrations of agonists were used. To determine if the same protocols used here produced synergistic increases in secretion from submucosal glands, mucus secretion rates of individual tracheal glands in WT pigs and ferrets and in CF ferrets were measured via time-lapse optical imaging (28) while stimulating them with the same concentrations of agonists and durations of exposure used for MCCV studies. All secretion rates are reported as nanoliters/min/gland. WT Ferrets gave similar results (FIG. 3D-F). […] Data for individual WT control ferrets is shown in FIG. 3E for forskolin first and in FIG. 3F for carbachol first. Optical measurement of glandular mucus secretion rate. Details are in the previous report (28). […] Stored images were analyzed by direct measurement or with ImageJ software (V. 1.50i, https://imagej.nih.gov/ij/, NIH, MD/USA).

[2] = system: CF ferret (CFTRKO/KO) tracheal glands; experiment: Optical measurement of glandular mucus secretion rate, CF ferret; conditions: 10 mM forskolin, 0.3 mM carbachol, one ferret per order of addition
Description: as §1, with “nanoliters/min/gland. […] Only two CF ferrets were able to be tested (FIG. 3G-I). […] Unstimulated secretion rates were zero, as in” for “nanoliters/min/gland.”, “ferrets.” for “Ferrets gave similar results (FIG. 3D-F).”, “The averaged secretion rate across both ferrets to the combined agonists was 1.27±0.15,which is 2.8 times the arithmetic sum of the two agonists used alone, and about half of the response of” for “Data for individual”, “WT” for “WT control”, “ferrets” for “ferrets is shown in FIG. 3E for forskolin first and in FIG. 3F for carbachol first. Optical measurement”, “2.46±0.39 (16). Airway tissue procurement.” for “glandular mucus secretion rate. Details are in the previous report (28).”

[3] = system: WT piglet tracheas; experiment: Mucociliary clearance velocity (MCCV) in ex vivo WT piglet tracheas; set-up: species or system pig; conditions: for Averaged MCCV: 10 μM forskolin, 0.3 μM carbachol, last 20 min of single agonist period, last 50 min of synergy period
Protocol: MCCV in tracheas was measured from 2 to 5 days old WT piglets (see “Methods” section for details). […] The 8 piglet tracheas were divided into two groups and tested 4 by applying forskolin first and 4 by applying carbachol first, followed by the combined agonists.
These experiments used forskolin to elevate cAMP.
Pig tissues. Newborn WT piglet tracheas (2-5 days old) were directly obtained at the swine facility of UC Davis or from the laboratory of David Stoltz, University of Iowa, via overnight priority express. Postmortem (<1 h) tracheas from young adult Yorkshire pigs (30-50 kg) and 5-12 months old M. putorius ferrets were from animal facilities at Stanford and Gilroy/CA. All methods using animal tracheae were carried out in accordance with relevant guidelines and regulations of Stanford University and animal protocols were approved (Stanford IACUC protocol#: 10,048). Piglet tracheas were shipped in DMEM cell culture medium, other animal tissues were transported to the laboratory in cold PhysioSol™ solution (Hospira, IL/USA) and then transferred to icecold Krebs Ringer bicarbonate (KRB) buffer gassed with 95% O2 and 5% CO2 and kept at 4° C. until use. The KRB buffer contained (in mM): 115 NaCl, 25 NaHCO3, 2.4 K2HPO4, 0.4 KH2PO4, 1.2 MgCl2, 1.2 CaCl2, 10 glucose, and 1.0 μM indomethacin, adjusted to pH 7.2 and ˜290 mOsm at room temperature.
MCCV measurement. Details are in the previous reports (16,59,60). Briefly, each whole length ferret or piglet trachea, or a CF tracheal trim, was cut open along the mid-dorsal line and mounted mucosal side up onto a Sylgard elastomer platform. […] The prepared trachea was placed into a sealed, humidified chamber bubbled continuously with gas (95%/5%-O2/CO2) with the serosal surface bathed with KRB buffer±drugs. […] Then excess apical solution was drained, and tissue was incubated for an additional 10 min before starting baseline measurements of MCCV. Drugs were added by bath replacement with pre-warmed bath+drug(s). Summary MCCV data are reported as a single number and based on the averaged MCCV during the last 20 min of the treatment period unless stated otherwise.
MCCV (all values are in mm/min) was then measured for 90-120 min and plotted as MCCV vs time and agonist(s) in FIG. 8.
It was hypothesized that the synergistic MCC induced by β-adrenergic and cholinergic agonists involved ENaC inhibition.

Structure (SMILES) | gland mucus secretion rate [1] | average gland mucus secretion rate, single ferret [2] | Averaged MCCV ([3]; WT piglet tracheas) | effect on MCCV ([3]; WT piglet tracheas, carbachol or forskolin alone) | MCCV ([3]; pig tracheas, 10 μM formoterol in place of forskolin, carbachol)
C[N+](C)(C)CCOC(N)=O [carbachol] | 0.94±0.28 nanoliters/min/gland | 0.45±0.16 nanoliters/min/gland | 1.12±0.82 mm/min | only small increases | 1.3±0.8 mm/min
C=C[C@@]1(C)CC(=O)[C@]2(O)[C@@]3(C)[C@@H](O)CCC(C)(C)[C@@H]3[C@H](O)[C@H](OC(C)=O)[C@@]2(C)O1 [forskolin] | 0.26±0.07 nanoliters/min/gland | 0.01 nanoliters/min/gland | 2.46±0.68 mm/min | – | –
